Experimental data: US20080194585A1, “Fungicidal Pyrazine Derivatives” (priority 2005, published 2008)
Marks after values point to notes of the source that are not given here.

Assays:
Septoria tritici = experiment: Test J: wheat leaf blotch, preventive spray on wheat seedlings; format: in vivo
Source text: A dash (-) indicates no test results.

Rhizoctonia oryzae = experiment: Test G: turf brown patch, preventive spray on creeping bent grass seedlings; settings: for pest or weed control at 40 ppm: read-out: Test G disease control rating, 40 ppm (*)
Protocol: (the causal agent of turf brown patch) and incubated in a saturated atmosphere at 27° C. for 24 h, and then moved to a growth chamber at 27° C. for 5 days, after which disease ratings were made.

Plasmopara viticola = experiment: Test D: grape downy mildew, spray after inoculation of grape seedlings; format: in vivo
Source text: Upon removal, disease ratings were made. […] A dash (-) indicates no test results.

fusarium graminearium = experiment: Test I: wheat head scab, preventive spray on wheat seedlings; settings: for pest or weed control at 40 ppm: read-out: Test I disease control rating, 40 ppm (*); for Test I disease control rating: 200 ppm
Protocol: (the causal agent of wheat head scab) and incubated in a saturated atmosphere at 20° C. for 72 h, and then moved to a growth chamber at 22° C. for 5 days, after which disease ratings were made.

[1] = test system: Erysiphe graminis f. sp. tritici; experiment: Test L: wheat powdery mildew, preventive spray on wheat seedlings; settings: for pest or weed control at 40 ppm: read-out: Test L disease control rating, 40 ppm (*)
Botrytis cinerea = experiment: Test E: tomato botrytis, preventive spray on tomato seedlings
Septoria nodorum = experiment: Test H: wheat glum blotch, preventive spray on wheat seedlings; settings: for pest or weed control at 40 ppm: read-out: Test H disease control rating, 40 ppm (*)
Protocol: (the causal agent of wheat glum blotch) and incubated in a saturated atmosphere at 20° C. for 48 h, and then moved to a growth chamber at 22° C. for 5 days, after which disease ratings were made.

Pythium aphanidermatum = experiment: Test A: bluegrass pythium blight, preventive spray on bluegrass seedlings; settings: for Test A disease control rating: 200 ppm
[2] = test system: Puccinia recondita f. sp. tritici; experiment: Test K: wheat leaf rust, preventive spray on wheat seedlings
[3] = test system: Colletotrichum orbiculare; experiment: Test B: cucumber Colletotrichum anthracnose, preventive spray on cucumber seedlings; settings: for pest or weed control at 40 ppm: read-out: Test B disease control rating, 40 ppm (*); for Test B disease control rating: 40 ppm (marked *), 100 = 100% disease control, 0 = no control
Phytophthora infestans = experiment: whole plant or invertebrate; format: in vivo; settings: for Test F disease control rating: 200 ppm
[4] = Botrytis cinerea, in Solanum lycopersicum, topical, 72 h, read-out: Test E disease control rating
[5] = Pythium aphanidermatum, 120 h, read-out: Test A disease control rating
[6] = Puccinia recondita, in Triticum aestivum, 192 h, read-out: Test K disease control rating
[7] = Phytophthora infestans, in Solanum lycopersicum, topical, 144 h, read-out: Test F disease control rating
[8] = Zymoseptoria tritici, 528 h, 40 ppm (*), read-out: Test J disease control rating
[9] = Waitea circinata, in Agrostis stolonifera, topical, 144 h
[10] = Plasmopara viticola, 168 h, read-out: Test D disease control rating
[11] = Fusarium, in Triticum aestivum, topical, 192 h
[12] = Blumeria graminis, in Triticum aestivum, 168 h
[13] = Parastagonospora nodorum, in Triticum aestivum, topical, 168 h
[14] = Colletotrichum orbiculare, in Cucumis sativus, 144 h
[15] = 40 ppm (marked *), 100 = 100% disease control, 0 = no control
[16] = 100 = 100% disease control, 0 = no control relative to controls

| SMILES | Test J disease control rating (Septoria tritici; [15]) | Test G disease control rating (Rhizoctonia oryzae; [15]) | Test I disease control rating (fusarium graminearium; [16]) [%] | Test L disease control rating [1, 15] | Test E disease control rating (Botrytis cinerea; [15]) | Test H disease control rating (Septoria nodorum; [15]) | Test A disease control rating (Pythium aphanidermatum; [16]) [%] | Test K disease control rating [2, 15] | Test B disease control rating [3] | Test F disease control rating (Phytophthora infestans; [16]) [%] | also measured |
| --- | --- | --- | --- | --- | --- | --- | --- | --- | --- | --- | --- |
| CC(C)Cn1c(-c2c(F)cccc2F)c(Br)nc(-n2cccn2)c1=O [Compound 99, 5-Bromo-6-(2,6-difluorophenyl)-1-(2-methylpropyl)-3-(1H-pyrazol-1-yl)-2(1H)-pyrazinone] | – | – | – | – | – | – | – | – | – | – | pest or weed control at 200 ppm (Septoria tritici; Zymoseptoria tritici, 528 h, 200 ppm, read-out: Test J disease control rating): 100%; pest or weed control at 200 ppm (Rhizoctonia oryzae; Waitea circinata, in Agrostis stolonifera, topical, 144 h, read-out: Test G disease control rating, 200 ppm): 82%; pest or weed control at 200 ppm (Plasmopara viticola; Plasmopara viticola, 168 h, 200 ppm, read-out: Test D disease control rating): 0%; pest or weed control at 200 ppm (fusarium graminearium; Fusarium, in Triticum aestivum, topical, 192 h, read-out: Test I disease control rating, 200 ppm): 0%; pest or weed control at 200 ppm ([1]; Blumeria graminis, in Triticum aestivum, 168 h, read-out: Test L disease control rating, 200 ppm): 100%; pest or weed control at 200 ppm (Botrytis cinerea; [4]): 100%; pest or weed control at 200 ppm (Septoria nodorum; Parastagonospora nodorum, in Triticum aestivum, topical, 168 h, read-out: Test H disease control rating, 200 ppm): 100%; pest or weed control at 200 ppm (Pythium aphanidermatum; [5]): 0%; pest or weed control at 200 ppm [2, 6]: 100%; pest or weed control at 200 ppm ([3]; Colletotrichum orbiculare, in Cucumis sativus, 144 h, read-out: Test B disease control rating, 200 ppm): 99%; pest or weed control at 200 ppm (Phytophthora infestans; [7]): 0% |
| O=c1c(-n2cccn2)nc(Cl)c(-c2c(F)cccc2F)n1-c1ccccc1 [Compound 161, 5-Chloro-6-(2,6-difluorophenyl)-1-phenyl-3-(1H-pyrazol-1-yl)-2(1H)-pyrazinone] | – | – | – | – | – | – | – | – | – | – | pest or weed control at 40 ppm (Septoria tritici; [8]): 97%; pest or weed control at 40 ppm (Rhizoctonia oryzae; [9]): 68%; pest or weed control at 40 ppm (Plasmopara viticola; [10]): 0%; pest or weed control at 40 ppm (fusarium graminearium; [11]): 69%; pest or weed control at 40 ppm [1, 12]: 90%; pest or weed control at 40 ppm (Botrytis cinerea; [4]): 100%; pest or weed control at 40 ppm (Septoria nodorum; [13]): 100%; pest or weed control at 40 ppm (Pythium aphanidermatum; [5]): 0%; pest or weed control at 40 ppm [2, 6]: 100%; pest or weed control at 40 ppm [3, 14]: 77%; pest or weed control at 40 ppm (Phytophthora infestans; [7]): 0% |
| CCC(C)Cn1c(-c2ccc(F)cc2Cl)c(Cl)nc(-n2ccc(C)n2)c1=O (centres unmarked) [Compound 170, 5-Chloro-6-(2-chloro-4-fluorophenyl)-1-(2-methylbutyl)-3-(3-methyl-1H-pyrazol-1-yl)-2(1H)-pyrazinone] | – | – | – | – | – | – | – | – | – | – | pest or weed control at 40 ppm (Septoria tritici; [8]): 100%; pest or weed control at 40 ppm (Rhizoctonia oryzae; [9]): 26%; pest or weed control at 40 ppm (Plasmopara viticola; [10]): 0%; pest or weed control at 40 ppm (fusarium graminearium; [11]): 0%; pest or weed control at 40 ppm [1, 12]: 99%; pest or weed control at 40 ppm (Botrytis cinerea; [4]): 100%; pest or weed control at 40 ppm (Septoria nodorum; [13]): 100%; pest or weed control at 40 ppm (Pythium aphanidermatum; [5]): 0%; pest or weed control at 40 ppm [2, 6]: 100%; pest or weed control at 40 ppm [3, 14]: 100%; pest or weed control at 40 ppm (Phytophthora infestans; [7]): 0% |
| CC(C)(C)Cn1c(-c2c(F)cccc2F)c(Cl)nc(-n2cccn2)c1=O [compound 59] | – | – | – | – | – | – | – | – | – | – | Test J disease control rating (Septoria tritici; 40 ppm (*)): 100* %; Test G disease control rating (Rhizoctonia oryzae; 40 ppm (*)): 49* %; Test D disease control rating (Plasmopara viticola; 200 ppm): 0%; Test I disease control rating (fusarium graminearium): 0%; Test L disease control rating ([1]; 40 ppm (*)): 98* %; Test E disease control rating (Botrytis cinerea; 40 ppm (*)): 100* %; Test H disease control rating (Septoria nodorum; 40 ppm (*)): 73* %; Test A disease control rating (Pythium aphanidermatum): 0%; Test K disease control rating ([2]; 40 ppm (*)): 94* %; Test F disease control rating (Phytophthora infestans): 0% |
| COc1ccccc1-n1c(-c2c(F)cccc2F)c(Cl)nc(-n2cccn2)c1=O [compound 393] | 33* % | 0* % | 0 | 0* % | 29* % | 73* % | 0 | 89* % | 41* % | 0 | – |
| COc1cccc(-n2c(-c3c(F)cccc3F)c(Cl)nc(-n3cccn3)c2=O)c1 [compound 394] | 100* % | 47* % | 78 | 99* % | 99* % | 100* % | 0 | 100* % | 99* % | 0 | – |
| COc1ccc(-n2c(-c3c(F)cccc3F)c(Cl)nc(-n3cccn3)c2=O)cc1 [compound 395] | 99* % | 0* % | 0 | 0* % | 80* % | 95* % | 0 | 99* % | 57* % | 0 | – |
| O=c1c(-n2cccn2)nc(Cl)c(-c2c(F)cccc2F)n1-c1ccccc1OC(F)(F)F [compound 396] | 85* % | 0* % | 0 | 91* % | 70* % | 89* % | 0 | 94* % | 13* % | 0 | – |
| O=c1c(-n2cccn2)nc(Cl)c(-c2c(F)cccc2F)n1-c1ccccc1OC(F)(F)F [compound 397] | 94* % | 0* % | 0 | 0* % | 99* % | 94* % | 0 | 80* % | 37* % | 0 | – |
| O=c1c(-n2cccn2)nc(Cl)c(-c2c(F)cccc2F)n1-c1ccc(OC(F)(F)F)cc1 [compound 398] | 97* % | 24* % | 0 | 78* % | 98* % | 75* % | 0 | 97* % | 56* % | 0 | – |
| O=c1c(-n2cccn2)nc(Cl)c(-c2c(F)cccc2F)n1-c1ccccc1C(F)(F)F [compound 399] | 100* % | 24* % | 0 | 93* % | 97* % | 90* % | 0 | 99* % | 88* % | 0 | – |
